Measured values published in PubChem BioAssay AID1596 (NINDS Approved Drug Screening Program, 2009).
Results filed as inconclusive are left out.

Test system: PC12 polyQ huntingtin toxicity, LDH release
Assay: protection from polyQ Htt cytotoxicity, dose response, PC12 cells, LDH release, LDH100 (AID 1596)

In order of falling EC50:
1. Nc1c(Br)cc(Br)cc1CNC1CCC(O)CC1 (stereo unspecified)  100 µM
2. CC[C@H]1OC(=O)[C@H](C)[C@@H](O[C@H]2C[C@@](C)(OC)[C@@H](O)[C@H](C)O2)[C@H](C)[C@@H](O[C@@H]2O[C@H](C)C[C@H](N(C)C)[C@H]2O)[C@](C)(O)C[C@@H](C)CN(C)[C@H](C)[C@@H](O)[C@]1(C)O  100 µM
3. NC(=NCc1ccccc1)NC(=O)c1nc(Cl)c(N)nc1N  100 µM
4. OCCN1CCN(CCCN2c3ccccc3Sc3ccc(Cl)cc32)CC1  100 µM
5. CC1(C)O[C@@H]2CC3C4C[C@H](F)C5=CC(=O)C=CC5(C)C4C(O)CC3(C)[C@]2(C(=O)CO)O1 (stereo partly specified)  100 µM
6. CCCCC[C@H](CC(=O)NO)C(=O)N[C@H](C(=O)N1CCC[C@H]1CO)C(C)C  100 µM
7. CC(C)=CCC1=C(O)c2ccccc2C(=O)C1=O  100 µM
8. COC12CC[C@@]3(C[C@@H]1C(C)(O)C(C)(C)C)[C@H]1Cc4ccc(O)c5c4[C@@]3(CCN1CC1CC1)[C@H]2O5 (stereo partly specified)  100 µM
9. CN(C)[C@@H]1C(=O)C(C(N)=O)=C(O)[C@@]2(O)C(=O)C3=C(O)c4c(O)cccc4[C@@](C)(O)[C@H]3[C@H](O)[C@@H]12  100 µM
10. CNC(=O)Oc1ccc2c(c1)[C@]1(C)CCN(C)[C@@H]1N2C  100 µM
11. CN[C@@H]1[C@H](OC2[C@H](O[C@H]3[C@H](O)[C@@H](O)[C@H](N=C(N)N)[C@@H](O)[C@@H]3N=C(N)N)O[C@@H](C)[C@]2(O)C=O)O[C@@H](CO)[C@H](O)[C@H]1O (stereo partly specified)  100 µM
12. CCCCCCCCCCCCCCCCCC(=O)OC(CC(=O)O)C[N+](C)(C)C (stereo unspecified)  100 µM
13. COc1ccc(-c2coc3cc(O)cc(O)c3c2=O)cc1  60 µM
14. CCCCC(=O)OC1(C(=O)CO)C(C)CC2C3CCC4=CC(=O)C=CC4(C)[C@@]3(F)[C@@H](O)CC21C (stereo partly specified)  60 µM
15. C[C@H]1c2cccc(O)c2C(O)=C2C(=O)[C@]3(O)C(O)=C(C(N)=O)C(=O)[C@@H](N(C)C)[C@@H]3[C@@H](O)[C@@H]21  60 µM
16. C=C[C@H]1CN2CC[C@H]1C[C@@H]2[C@H](O)c1ccnc2ccccc12  60 µM
17. Nc1c2c(nc3ccccc13)CCCC2  60 µM
18. CCCCCc1cc(O)c2c(c1)OC(C)(C)C1CCC(C)=CC21 (stereo unspecified)  60 µM
19. CC(=O)c1c(O)c(C)c(O)c2c1OC1=CC(=O)C(C(C)=O)C(=O)C12C (stereo unspecified)  60 µM
20. O=c1cc(-c2ccc(O)cc2)oc2cc(O)cc(O)c12  40 µM
21. CCCCCc1cc(O)c2c(c1)OC(C)(C)C1CC=C(C)CC21 (stereo unspecified)  40 µM
22. CCCCCc1cc(O)c2c(c1)OC(C)(C)c1ccc(C)cc1-2  40 µM
23. O=c1[nH]c2ccccc2n1C1CCN(CCCC(c2ccc(F)cc2)c2ccc(F)cc2)CC1  30 µM
24. CC(C)CC1C(=O)N2CCC[C@H]2C2(O)O[C@](NC(=O)C3C=C4c5cccc6[nH]c(Br)c(c56)C[C@H]4N(C)C3)(C(C)C)C(=O)N12 (stereo partly specified)  30 µM
25. COc1cc2ccc(=O)oc2cc1O  30 µM
26. CN1CCc2c(c3ccccc3n2Cc2ccccc2)C1  30 µM
27. CC(NC(=O)C(NC(=O)OCc1ccccc1)C(C)C)C(=O)NC(CC(=O)O)C(=O)OC(F)F (stereo unspecified)  20 µM
28. O=C(O)c1cc2cc(Cc3cccnc3)ccc2o1  20 µM
29. NC(=O)N/N=C/c1ccc([N+](=O)[O-])o1  20 µM
30. CC(=O)Nc1ccc(S(=O)(=O)Nc2ccc([N+](=O)[O-])cc2)cc1  20 µM
31. Oc1cccc2cccnc12  20 µM
32. Oc1c(Cl)cc(Cl)cc1Sc1cc(Cl)cc(Cl)c1O  20 µM
33. OCC(S)CS (stereo unspecified)  10 µM
34. CN1CCc2cccc3c2C1Cc1ccc(O)c(O)c1-3 (stereo unspecified)  10 µM
35. COc1ccc(C[C@H](N)C(=O)N[C@@H]2[C@@H](CO)OC(n3cnc4c(N(C)C)ncnc43)[C@@H]2O)cc1 (stereo partly specified)  10 µM
36. CC(NCCC(c1ccccc1)c1ccccc1)c1ccccc1 (stereo unspecified)  10 µM
37. Oc1c(Cl)cc(Cl)c(Cl)c1Cc1c(O)c(Cl)cc(Cl)c1Cl  10 µM
38. CC(Cc1ccc(O)c(O)c1)C(C)Cc1ccc(O)c(O)c1 (stereo unspecified)  8 µM
39. CC(=O)Oc1ccc(Cl)c2cccnc12  8 µM
40. CCOc1ccc2c(c1)C(C)=CC(C)(C)N2  8 µM
41. CC(C)(C)c1ccc(C(O)CCCN2CCC(C(O)(c3ccccc3)c3ccccc3)CC2)cc1 (stereo unspecified)  8 µM
42. O=C(c1ccccc1)c1ccc2n1CCC2C(=O)O (stereo unspecified)  8 µM
43. NCCCCNCCCN  8 µM
44. O=C1C=CC(=C(c2ccc(O)cc2)c2ccc(O)cc2)C=C1  6 µM
45. CO/N=C(/C(=O)N[C@@H]1C(=O)N2C(C(=O)O)=C(COC(C)=O)CS[C@H]12)c1csc(N)n1  6 µM
46. O=c1c2ccccc2[se]n1-c1ccccc1  6 µM
47. Cc1ccc(C(=O)C(C)CN2CCCCC2)cc1 (stereo unspecified)  6 µM
48. CC[C@@]1(O)C[C@H](OC2CC(N(C)C)C(OC3CC(O)C(OC4CCC(=O)C(C)O4)C(C)O3)C(C)O2)c2c(cc3c(c2O)C(=O)c2c(O)cccc2C3=O)[C@H]1C(=O)OC (stereo partly specified)  4 µM
49. CC(C)C(=O)Nc1ccc([N+](=O)[O-])c(C(F)(F)F)c1  4 µM
50. C=C1C(=O)OC2C1CCC1(C)CCC=C(C)C21 (stereo unspecified)  4 µM
51. CCN(CC)CCNc1ccc(CO)c2sc3ccccc3c(=O)c12  4 µM
52. CO[C@@H]1C[C@@H](C[C@H]2CC[C@H](C)[C@H]([C@@H](C)C(=O)O)O2)O[C@]2(O[C@](C)([C@H]3CC[C@@](C)(C4O[C@@H](C5O[C@@](O)(CO)[C@H](C)C[C@@H]5C)C[C@@H]4C)O3)C[C@H]2C)[C@@H]1C (stereo partly specified)  4 µM
53. CC[n+]1c(-c2ccccc2)c2cc(N)ccc2c2ccc(N)cc21  4 µM
54. O=NN(CCCl)C(=O)NCCCl  4 µM
55. Cc1cc(C2CCCCC2)n(O)c(=O)c1  2.5 µM
56. CO[C@@]12[C@@H]3NC3CN1C1=C(C(=O)C(N)=C(C)C1=O)[C@@H]2COC(N)=O (stereo partly specified)  2.5 µM
57. CN(C)CCOC(c1ccc(Cl)cc1)c1ccccn1 (stereo unspecified)  1.5 µM
58. O=C(Nc1ccc([N+](=O)[O-])cc1Cl)c1cc(Cl)ccc1O  1 µM
59. C[N+](C)(C)CCOC(N)=O  1 µM
60. O=C1C=C2C(=CCOC2O)O1 (stereo unspecified)  1 µM
61. CC(=O)OCC(=O)[C@@]1(O)[C@H](C)CC2C3CCC4=CC(=O)C=C[C@]4(C)[C@@]3(F)[C@@H](O)C[C@@]21C (stereo partly specified)  0.8 µM
62. CNc1ccc2oc(C[C@@H]3OC4(CC[C@@H]3C)O[C@H](C(C)C(=O)c3ccc[nH]3)[C@H](C)C[C@H]4C)nc2c1C(=O)O (stereo partly specified)  0.8 µM
63. C[C@@]1(C(=O)O)CC[C@]2(C)CC[C@]3(C)C4=CC=C5C=C(O)C(=O)C=C5[C@]4(C)CC[C@@]3(C)[C@@H]2C1  0.5 µM
64. CC(C)=CCCC1(C)C=Cc2c(O)c3c(c(CC=C(C)C)c2O1)OC12C(=CC4CC1C(C)(C)OC2(C/C=C(/C)C(=O)O)C4=O)C3=O (stereo unspecified)  0.3 µM
65. C[C@@H]1C[C@@H]([C@H](O)CC2CC(=O)NC(=O)C2)C(=O)[C@@H](C)C1  0.2 µM
66. CN(C)c1ccc(C(=C2C=CC(=[N+](C)C)C=C2)c2ccc(N(C)C)cc2)cc1  0.2 µM
